The test system of data set [1] is bilirubin conjugation in human microsomes. The conditions noted are these: in vitro system of human microsomes; cited from earlier work.
The target of a further data set is T1, UGT1A1 isoform (Homo sapiens, UniProt P22309).
T1 sequence (P22309 26-533): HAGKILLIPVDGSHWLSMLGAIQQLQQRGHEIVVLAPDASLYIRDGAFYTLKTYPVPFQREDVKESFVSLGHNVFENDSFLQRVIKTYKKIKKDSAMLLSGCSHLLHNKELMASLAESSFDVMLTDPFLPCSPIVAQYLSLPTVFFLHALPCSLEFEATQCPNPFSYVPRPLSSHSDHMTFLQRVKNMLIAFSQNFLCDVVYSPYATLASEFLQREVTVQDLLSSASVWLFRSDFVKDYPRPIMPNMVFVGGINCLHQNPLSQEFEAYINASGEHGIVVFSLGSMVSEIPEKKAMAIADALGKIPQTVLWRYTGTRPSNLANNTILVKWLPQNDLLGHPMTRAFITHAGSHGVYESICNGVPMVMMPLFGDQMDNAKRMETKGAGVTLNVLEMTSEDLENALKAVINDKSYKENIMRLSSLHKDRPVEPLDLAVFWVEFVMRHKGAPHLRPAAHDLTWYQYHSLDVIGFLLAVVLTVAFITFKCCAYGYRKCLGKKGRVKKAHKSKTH
The note with it: human cells transfected with the UGT1A1 isoform; cited from earlier work.

Data set [2] relates to UDP-glucuronosyltransferase 1 family, member 1. Kind of data set: Rat liver microarray (Affymetrix Rat U34), induction of probe sequences by ritonavir. Type of data set: in vivo, Sprague-Dawley rats. The note with it: 3-Day Studies.
Data set [3] concerns 3-methylcholanthrene-inducible UDP-glucuronosyltransferase. The data set is described as above. Type of data set: in vivo, Sprague-Dawley rats. The conditions noted are these: 3-Day Studies, probe sequence 4 of 5, rat liver.
Data set [4] has as its system UDP-glucuronosyltransferase 1A (UGT1A). Kind of data set: Rat liver microarray, all 5 UGT1A probe sets. Type of data set: in vivo, Sprague-Dawley rats. The conditions noted are these: rats, dose levels of 100 mg/kg and higher, after 1 and 3 days of treatment.
In data set [5] the test system is UDP glucuronosyltransferase, exon 1. The experiment in a line: Rat liver microarray (Affymetrix Rat U34), induction of probe sequences by ritonavir. The note with it: 3-Day Studies, probe sequence 5 of 5, rat liver.
Another data set deals with UGT1A1. The experiment in a line: Hepatic 17α-ethinylestradiol glucuronidation activity in liver microsomes of treated rats. The note with it: both male and female rats. (Liver microsomes are a subcellular fraction often used to study metabolism.)
The nature of data set [6]: Ethinylestradiol pharmacokinetics alone and with ritonavir in healthy female volunteers. Type of data set: in vivo, human. The conditions noted are these: for t1/2: ethinylestradiol terminal phase, reported as harmonic mean. How it is done: This was an open-label, single-center study in healthy female volunteers who had not received an oral contraceptive for a minimum of six months prior to study start. Subjects received the first dose of oral contraceptive containing 50 μg of ethinyl estradiol on Day 1. […] On Day 15, 300 mg q12h was administered, 400 mg q12h was given on Day 16, and 500 mg q12h was administered thereafter. […] Blood samples for ethinylestradiol concentrations were collected for 48 h after each of the oral contraceptive doses.
Ethinylestradiol was supplied as Demulen@ 1/50-21 tablets (G.D. Searle & Co.) containing 50 μg of ethinylestradiol and 1 mg of ethynodiol diacetate and was administered at 8:00 a.m. on Day 1 and Day 29 with approximately 240 mL of water and within 15 minutes of a meal or snack.
Subjects were confined for 64 hours from Day -1 (day prior to the initial dose) through the first 48 hour blood collection (morning of Day 3) and for 64 hours from Day 28 through the second 48 hour blood collection (morning of Day 31). In addition, subjects came to the clinical testing unit as outpatients for meals, dosing and other study activities twice daily for a total of 14 consecutive days, starting on Day 15. Strenuous activity during confinement was not permitted. During confinement, subjects abstained from all food and beverages except for the scheduled meals and snacks provided in the study. Water was available ad libitum. All meals were standardized with regard to content during confinement. Breakfast, lunch, and dinner were served at approximately 7:30 a.m., 1:00 p.m. and 7:30 p.m. and snacks were provided at approximately 10:00 p.m., except on Days-1 and 28 when the snack was served at 9:45 p.m. An 8 hour fast was required prior to all blood collections for clinical laboratory analyses. The sequence of starting breakfast and dinner on each dosing day during confinement was maintained to the minute such that the time intervals relative to dosing were the same among all subjects.
Blood samples (7 mL) were collected for serum ethinyl estradiol concentrations at the following times relative to the dose on Day 1 and Day 29: prior to (0 h) and at 0.5, 1, 2, 3, 4, 6, 8, 10, 12, 18, 24, 30, 36, and 48 h post-dose. […] All plasma and serum samples were packed with dry ice and shipped to the analytical sites.
Analysis of serum samples for determination of ethinyl estradiol was performed at Pharmaco LSR, Richmond, Va. Ethinylestradiol serum concentrations were determined using a gas chromatography/mass spectrometry (GC/MS) method. 17α-ethinylestradiol and its corresponding isotopically labeled internal standard were isolated from human serum by buffering the serum to pH 8.6 and then extracting with an ethyl ether/methylene chloride mixture. The organic layer was exchanged into aqueous base, washed with hexane and then acidified and extracted with methylene chloride. The extract was dried with sodium carbonate, evaporated and derivatized. The derivatized extract was stored at −20° C. until analysis. Analysis was by capillary GC/MS using negative chemical ionization with selected ion monitoring. This method has been validated over 17α-ethinylestradiol concentrations ranging from 2.00 to 256 pg/mL for a 1.0 mL serum volume, with a minimum quantitation limit of 2.00 pg/mL.
Ethinylestradiol pharmacokinetic parameters were estimated following two single doses, on Day 1 and Day 29, using noncompartmental methods. The pharmacokinetic parameters were calculated using the intended sampling times; all samples were collected within 10% of intended sampling times. Maximal plasma concentration (Cmax,) and time to reach Cmax (Tmax) were obtained directly from individual concentration vs. time profiles. […]

The test system of data set [7] is bilirubin-conjugating activity. The note with it: indinavir treatment; cited from earlier work.
The mark [8] stands for this setting: female, human, serum, po, 50 μg.

For the compound `COC(=O)N[C@H](C(=O)N[C@@H](Cc1ccccc1)[C@@H](O)CN(Cc1ccc(-c2ccccn2)cc1)NC(=O)[C@@H](NC(=O)OC)C(C)(C)C)C(C)(C)C` [atazanavir], the “inhibition of bilirubin conjugation” value (in data set [1]; at UGT1A1 isoform) was “micromolar range” throughout.
On to `CC(C)c1nc(CN(C)C(=O)N[C@H](C(=O)N[C@@H](Cc2ccccc2)C[C@H](O)[C@H](Cc2ccccc2)NC(=O)OCc2cncs2)C(C)C)cs1` [ritonavir], for which the “Fold change, UDP-glucuronosyltransferase 1 family, member 1” value in data set [2] (75 mg/kg, probe sequence 1 of 5, rat liver) amounted to 1.56; in data set [2] (75 mg/kg, probe sequence 2 of 5, rat liver) it was 1.38; in data set [2] (75 mg/kg, probe sequence 3 of 5, rat liver), 1.57; in [2] (100 mg/kg, probe sequence 1 of 5, rat liver), 1.67; in data set [2] (100 mg/kg, probe sequence 2 of 5, rat liver), 1.46; in [2] (100 mg/kg, probe sequence 3 of 5, rat liver) it was 1.61. Besides, the “Fold change, UDP-glucuronosyltransferase 1 family, member 1” value in data set [2] (125 mg/kg, probe sequence 1 of 5, rat liver) came to 1.54; in data set [2] (125 mg/kg, probe sequence 2 of 5, rat liver), 1.42; in data set [2] (125 mg/kg, probe sequence 3 of 5, rat liver), 1.65. Also, the “Fold change, 3-methylcholanthrene-inducible UDP-glucuronosyltransferase” value stood at 1.97 in [3] (75 mg/kg), 2.26 in [3] (100 mg/kg) and 2.25 in [3] (125 mg/kg). Further, the “UGT1A levels for all probe sets” value in [4] is “consistent increase”. In addition, the “Fold change, UDP glucuronosyltransferase, exon 1.” value in data set [5] (100 mg/kg) is reported as 3.96; in data set [5] (125 mg/kg), 5.06. The “effect on glucuronidation of 17α-ethinylestradiol, a UGT1A1 substrate” value in the data set on UGT1A1 is reported as “significantly increase”.
A word on the half-life: it is the time in which the quantity being followed falls by half. High values mean slow decline, low ones rapid decline. One may read the AUC(0-inf) as the area under the concentration-time curve extrapolated to infinity. A low value points to low exposure. Broadly, the Cmax is the maximum level reached in the sampled fluid or tissue. Broadly, the Tmax is the time at which the peak concentration occurs. `C#C[C@]1(O)CC[C@H]2[C@@H]3CCc4cc(O)ccc4[C@H]3CC[C@@]21C` [Ethinylestradiol, 17α-ethinylestradiol] showed a t1/2 in [6] (alone Day 1, with ritonavir 500 mg q12h Day 29) of 17.0 h. This compound displayed a t1/2 in data set [6] (alone Day 1, with ritonavir 500 mg q12h Day 29, listed as ethinyl estradiol) of 17.0 h. In data set [6] (female, human, serum, oral, 500 mg), this compound gave a half-life of 17 h. In data set [6] (setting [8]), this compound returned an AUC(0-inf) of 1.67 ± 0.377 ng·h/mL and a Cmax of 0.104 ± 0.024 ng/mL. Moreover, the Tmax in data set [6] (female, human, serum, po, 50 μg, serum ethinylestradiol after single oral contraceptive dose (50 μg), Mean ± SD, n = 23, alone Day 1, with ritonavir 500 mg q12h Day 29) is approximately 4 h.
As for `CC(C)(C)NC(=O)[C@@H]1CN(Cc2cccnc2)CCN1C[C@@H](O)C[C@@H](Cc1ccccc1)C(=O)N[C@H]1c2ccccc2C[C@H]1O` [indinavir], the “cause of elevations in serum-unconjugated bilirubin” value in data set [7] is recorded as “direct inhibition of bilirubin-conjugating activity”.
